Source: US8278464B2, “Insecticides” (Syngenta Crop Protection LLC, priority 2006, dated 2012)

Columns and labels:
Assay type in all cases: in vivo
[1] = tested on: Heliothis virescens (Tobacco Budworm); experiment: Activity against Heliothis virescens, eggs on artificial diet (Example B2); details: 96 h, eggs 0-24 h old, incubation 4 days
Protocol: Eggs (0-24 h old) are placed in 24-well microtiter plate on artificial diet and treated with test solutions by pipetting. After an incubation period of 4 days, samples are checked for egg mortality, larval mortality, and growth regulation.

[2] = tested on: Plutella xylostella (Diamond Back Moth); experiment: Activity against Plutella xylostella, artificial diet MTP (Example B3); details: 120 h, L2 larvae, incubation 5 days
Protocol: (§1) 24-well microtiter plate (MTP) with artificial diet is treated with test solutions by pipetting. After drying, the MTP's are infested with larvae (L2) (10-15 per well). After an incubation period of 5 days, samples are checked for larval mortality, antifeedant and growth regulation. In this test, compounds listed in the Tables above show good activity. In particular compounds T13.1.2, T15.1.1, T15.1.91, T13.1.1, T9.1.2 (diastereomer A), T9.1.2 (diastereomer B), T16.1.1, T17.1.2 (diastereomer A), T17.1.2 (diastereomer B), T16.1.91, T13.1.92, T13.1.361, T13.1.391, T13.1.91, T13.1.6, T13.1.96, T44.1.2, T13.1.8, T13.1.23, T13.1.93, T13.1.113, T13.1.21, T13.1.111 have an activity of over 80% at 400 ppm.

[3] = tested on: Myzus persicae (Green Peach Aphid); experiment: Activity against Myzus persicae, contact, sunflower leaf discs (Example B5); details: foliar, 144 h, 6 DAT
Protocol: Sunflower leaf discs are placed on agar in a 24-well microtiter plate and sprayed with test solutions. After drying, the leaf discs are infested with an aphid population of mixed ages. After an incubation period of 6 DAT, samples are checked for mortality and special effects (e.g. phytotoxicity).

[4] = tested on: Thrips tabaci (Onion Thrips); experiment: Activity against Thrips tabaci, sunflower leaf discs (Example B7); details: foliar, 144 h, incubation 6 days
Protocol: Sunflower leaf discs are placed on agar in a 24-well microtiter plate and sprayed with test solutions. After drying, the leaf discs are infested with a thrips population of mixed ages. After an incubation period of 6 days, samples are checked for mortality and special effects (e.g. phytotoxicity).

[5] = tested on: Diabrotica balteata (Corn Root Worm); experiment: Activity against Diabrotica balteata, artificial diet MTP (Example B4); details: 120 h, L2 larvae, incubation 5 days
Protocol: as §1, with “(6-10” for “(10-15”, “B),” for “B), T16.1.1,”, “T13.1.92,” for “T13.1.92, T13.1.361, T13.1.391,”, “T13.1.23,” for “T13.1.23, T13.1.93,”

[6] = tested on: Spodoptera littoralis (Cotton Leafworm); experiment: Systemic insecticide test for Spodoptera littoralis, maize seedlings, 12.5 ppm (Example B9); details: 96 h, 12.5 ppm in water, systemic via maize seedlings, larvae incubated four days
Protocol: (§2) Four day old maize seedlings (Zea mais, variety Stoneville) are placed individual in vials containing 24 ml water into which the chemical is diluted at 12.5 ppm. Seedlings are allowed to grow for six days. Subsequently leaves are cut and placed in a Petri dish (5 cm diameter), inoculated with twelve to fifteen 1st instar S. littoralis larvae and incubated for four days in a growth chamber (25° C., 50% r.h., 18:6 L:D photo period). Number of alive insects are counted and percentage of dead calculated. Tests were conducted with one replicate.

[7] = tested on: Spodoptera littoralis (Egyptian Cotton Leafworm); experiment: Activity against Spodoptera littoralis, cotton leaf discs sprayed (Example B1); details: foliar, 72 h, L1 larvae, checked 3 days after treatment
From the text: Cotton leaf discs are placed on agar in a 24-well microtiter plate and sprayed with test solutions. After drying, the leaf discs are infested with 5 L1 larvae. The samples are checked for mortality, repellent effect, feeding behaviour, and growth regulation 3 days after treatment (DAT).

[8] = tested on: Myzus persicae (Green Peach Aphid); experiment: Activity against Myzus persicae, systemic, pea seedlings (Example B6); details: 144 h, 6 days after introduction
From the text: Roots of pea seedlings, infested with an aphid population of mixed ages, are placed directly in the test solutions. 6 days after introduction, samples are checked for mortality and special effects on the plant.

[9] = tested on: Spodoptera littoralis (Lepidoptera:Noctuidae); experiment: Systemic insecticide test for Spodoptera littoralis, comparison with state of the art (Example B11)
Protocol: as §2, with “the prescribed concentrations (3 and 0.8 ppm).” for “12.5 ppm.”, “(3.5” for “(5”, “calculated. Effects on larvae growth were compared to the control and percentage of larvae growth reduction calculated.” for “calculated.”

| SMILES | pest or weed control at 400 ppm [1] [%] | pest or weed control at 400 ppm [2] [%] | pest or weed control at 400 ppm [3] [%] | pest or weed control at 400 ppm [4] [%] | pest or weed control at 400 ppm [5] [%] | pest or weed control at 12.5 ppm [6] [%] | pest or weed control at 400 ppm [7] [%] | pest or weed control at 400 ppm [8] [%] | Death rate (%) after 4 days ([9]; concentration 0.8 ppm) [%] | Larvae growth reduction (% compared to control) ([9]; concentration 0.8 ppm) [%] | Death rate (%) after 4 days ([9]; concentration 3 ppm) [%] | Larvae growth reduction (% compared to control) ([9]; concentration 3 ppm) [%] |
| --- | --- | --- | --- | --- | --- | --- | --- | --- | --- | --- | --- | --- |
| Cc1cc(Cl)cc(C(=O)NC2(C)C[S+]([O-])C2)c1NC(=O)c1cc(C(F)(F)F)nn1-c1ncccc1Cl (single isomer, unassigned) [T9.1.2 (diastereomer A)] | > 80 | > 80 | > 80 | > 80 | > 80 | > 80 | > 80 | > 80 | – | – | – | – |
| Cc1cc(Cl)cc(C(=O)NC2(C)CS(=N)(=O)C2)c1NC(=O)c1cc(C(F)(F)F)nn1-c1ncccc1Cl (single isomer, unassigned) [T17.1.2 (diastereomer A)] | > 80 | > 80 | > 80 | > 80 | > 80 | > 80 | > 80 | > 80 | – | – | – | – |
| O=C(NC1CCC1)c1cccc(Cl)c1NC(=O)c1cc(C(F)(F)F)nn1-c1ncccc1Cl [Comp. 296, reference compound] | – | – | – | – | – | – | – | – | 0 | 0 | 0 | 0 |
| Cc1cc(Cl)cc(C(=O)NC2(C)CS(=O)(=O)C2)c1NC(=O)c1cc(C(F)(F)F)nn1-c1ncccc1Cl [T13.1.2, 2-(3-Chloro-pyridin-2-yl)-5-trifluoromethyl-2H-pyrazole-3-carboxylic acid [4-chloro-2-methyl-6-(3-methyl-1,1-dioxo-1λ^6-thietan-3-ylcarbamoyl)-phenyl]-amide] | > 80 | > 80 | > 80 | > 80 | > 80 | > 80 | > 80 | > 80 | – | – | – | – |
| Cc1cc(Cl)cc(C(=O)NC2CS(=O)(=O)C2)c1NC(=O)c1cc(OCC(F)(F)F)nn1-c1ncccc1Cl [T13.1.21] | > 80 | > 80 | > 80 | > 80 | > 80 | – | > 80 | > 80 | – | – | – | – |
| Cc1cc(C#N)cc(C(=O)NC2(C)CS(=O)(=O)C2)c1NC(=O)c1cc(C(F)(F)F)nn1-c1ncccc1Cl [T13.1.92] | > 80 | > 80 | > 80 | > 80 | > 80 | > 80 | > 80 | > 80 | – | – | – | – |
| Cc1cc(C#N)cc(C(=O)NC2CS(=O)(=O)C2)c1NC(=O)c1cc(Br)nn1-c1ncccc1Cl [T13.1.96] | > 80 | > 80 | > 80 | > 80 | > 80 | > 80 | > 80 | > 80 | – | – | – | – |
| O=C(NC1CS(=O)(=O)C1)c1cccc(Cl)c1NC(=O)c1cc(C(F)(F)F)nn1-c1ncccc1Cl [T13.1.391] | > 80 | > 80 | – | – | – | > 80 | > 80 | – | 10 | 0 | 55 | 100 |
